Assay results as given in ChEMBL document CHEMBL3407472, “Multi-parameter optimization of aza-follow-ups to BI 207524, a thumb pocket 1 HCV NS5B polymerase inhibitor. Part 2: Impact of lipophilicity on promiscuity and in vivo toxicity” (Bioorg Med Chem Lett, 2015).
pEC50, pIC50: −log10 of the molar value.

What was measured:
[1] = AUC in cynomolgous monkey at 5 mg/kg, po and 2 mg/kg, iv; type: ADME, organism-based, Macaca fascicularis; conditions: cynomolgus monkey, plasma
[2] = Half life in cynomolgous monkey liver microsomes at 2 uM; type: ADME, Macaca fascicularis; conditions: cynomolgus monkey
[3] = Half life in human liver microsomes at 2 uM; type: ADME
[4] = Lipophilicity, log D of the compound; type: physicochemical; conditions: octanol/water
[5] = Ratio of drug uptake in liver to plasma of rat at 5 mg/kg, po and 2 mg/kg, iv after 6 to 8 hrs; type: ADME, organism-based
[6] = Half life in dog liver microsomes at 2 uM; type: ADME, Canis lupus familiaris
[7] = Clearance in dog at 5 mg/kg, po and 2 mg/kg, iv; type: ADME, organism-based, Canis lupus familiaris; conditions: in vivo
[8] = Half life in rat liver microsomes at 2 uM; type: ADME
[9] = Half life in dog at 5 mg/kg, po and 2 mg/kg, iv; type: ADME, organism-based, Canis lupus familiaris; conditions: in vivo
[10] = Bioavailability in rat at 5 mg/kg, po and 2 mg/kg, iv; type: ADME, organism-based; conditions: in vivo
[11] = Cmax in dog at 5 mg/kg, po and 2 mg/kg, iv; type: ADME, organism-based, Canis lupus familiaris; conditions: in vivo
[12] = Volume of distribution at steady state in dog at 5 mg/kg, po and 2 mg/kg, iv; type: ADME, organism-based, Canis lupus familiaris; conditions: in vivo, read-out: Vdss
[13] = Lipophilicity, log D of the compound at pH 7.4; type: physicochemical; conditions: buffer
Cathepsin G = target: T1, Cathepsin G (Homo sapiens, UniProt P08311); assay: Inhibition of cathepsin G (unknown origin)
T1 sequence (P08311 whole entry): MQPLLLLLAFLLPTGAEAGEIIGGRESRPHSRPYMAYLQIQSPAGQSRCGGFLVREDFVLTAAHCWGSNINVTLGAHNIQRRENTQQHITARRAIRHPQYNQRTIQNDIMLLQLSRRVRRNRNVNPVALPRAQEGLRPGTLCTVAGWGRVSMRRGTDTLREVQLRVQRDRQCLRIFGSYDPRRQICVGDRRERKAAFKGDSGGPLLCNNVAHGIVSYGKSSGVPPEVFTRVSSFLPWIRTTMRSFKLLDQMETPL

[14] = Half life in rat at 5 mg/kg, po and 2 mg/kg, iv; type: ADME, organism-based; conditions: in vivo
Hepatitis C virus [15] = assay: Antiviral activity against Hepatitis C virus genotype 1b infected in human Huh cells assessed as inhibition of viral replication by RT-PCR-based replicon assay; type: functional, cell-based, Hepacivirus hominis
[16] = Clearance in cynomolgous monkey at 5 mg/kg, po and 2 mg/kg, iv; type: ADME, organism-based, Macaca fascicularis; conditions: cynomolgus monkey, in vivo
D(1A) dopamine receptor = D(1A) dopamine receptor (Homo sapiens, UniProt P21728); assay: Inhibition of dopamine D1 receptor (unknown origin)
Sequence of D(1A) dopamine receptor (P21728 whole entry): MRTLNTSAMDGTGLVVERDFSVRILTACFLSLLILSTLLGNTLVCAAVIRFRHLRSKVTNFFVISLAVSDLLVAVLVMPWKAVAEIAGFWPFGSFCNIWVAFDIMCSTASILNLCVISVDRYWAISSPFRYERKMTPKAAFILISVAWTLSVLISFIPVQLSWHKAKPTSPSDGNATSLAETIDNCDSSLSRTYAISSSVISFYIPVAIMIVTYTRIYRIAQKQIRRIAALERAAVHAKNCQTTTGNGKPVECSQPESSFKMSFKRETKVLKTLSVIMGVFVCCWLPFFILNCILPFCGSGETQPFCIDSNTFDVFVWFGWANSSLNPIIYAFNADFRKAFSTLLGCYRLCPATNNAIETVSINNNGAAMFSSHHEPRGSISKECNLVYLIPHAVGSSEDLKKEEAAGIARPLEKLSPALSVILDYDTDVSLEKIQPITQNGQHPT

[17] = Cmax in cynomolgous monkey at 5 mg/kg, po and 2 mg/kg, iv; type: ADME, organism-based, Macaca fascicularis; conditions: cynomolgus monkey, in vivo
[18] = AUC in dog at 5 mg/kg, po and 2 mg/kg, iv; type: ADME, organism-based, Canis lupus familiaris; conditions: plasma
[19] = Volume of distribution at steady state in rat at 5 mg/kg, po and 2 mg/kg, iv; type: ADME, organism-based; conditions: in vivo, read-out: Vdss
[20] = Cmax in rat at 5 mg/kg, po and 2 mg/kg, iv; type: ADME, organism-based; conditions: in vivo
[21] = Clearance in rat at 5 mg/kg, po and 2 mg/kg, iv; type: ADME, organism-based; conditions: in vivo
[22] = Bioavailability in cynomolgous monkey at 5 mg/kg, po and 2 mg/kg, iv; type: ADME, organism-based, Macaca fascicularis; conditions: cynomolgus monkey, in vivo
[23] = Volume of distribution at steady state in cynomolgous monkey at 5 mg/kg, po and 2 mg/kg, iv; type: ADME, organism-based, Macaca fascicularis; conditions: cynomolgus monkey, in vivo, read-out: Vdss
[24] = target: T2, Amine oxidase [flavin-containing] A (Homo sapiens, UniProt P21397); assay: Inhibition of MAO-A (unknown origin)
T2 sequence (P21397 whole entry): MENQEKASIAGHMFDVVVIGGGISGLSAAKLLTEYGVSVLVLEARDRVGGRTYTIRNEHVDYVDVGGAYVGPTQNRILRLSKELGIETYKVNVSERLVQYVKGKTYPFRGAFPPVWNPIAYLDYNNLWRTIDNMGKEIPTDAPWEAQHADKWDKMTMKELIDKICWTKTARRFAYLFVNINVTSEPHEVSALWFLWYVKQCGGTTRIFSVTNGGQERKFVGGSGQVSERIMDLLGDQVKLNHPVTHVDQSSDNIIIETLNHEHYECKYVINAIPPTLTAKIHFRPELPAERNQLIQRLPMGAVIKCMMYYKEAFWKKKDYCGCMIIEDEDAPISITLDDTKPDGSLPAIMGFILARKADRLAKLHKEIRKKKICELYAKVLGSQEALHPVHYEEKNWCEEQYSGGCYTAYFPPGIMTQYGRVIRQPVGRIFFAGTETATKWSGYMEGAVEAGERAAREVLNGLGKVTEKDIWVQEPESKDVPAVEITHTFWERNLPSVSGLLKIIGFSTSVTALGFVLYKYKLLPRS

Hepatitis C virus [25] = assay: Antiviral activity against Hepatitis C virus genotype 1a infected in human Huh cells assessed as inhibition of viral replication by RT-PCR-based replicon assay; type: functional, cell-based, Hepacivirus hominis; conditions: subtype 1a
[26] = Half life in cynomolgous monkey at 5 mg/kg, po and 2 mg/kg, iv; type: ADME, organism-based, Macaca fascicularis; conditions: cynomolgus monkey, in vivo
[27] = Bioavailability in dog at 5 mg/kg, po and 2 mg/kg, iv; type: ADME, organism-based, Canis lupus familiaris; conditions: in vivo
[28] = target: 5-hydroxytryptamine receptor 2A (Homo sapiens, UniProt P28223); assay: Inhibition of serotonin 5-HT2A receptor (unknown origin)
Sequence of 5-hydroxytryptamine receptor 2A (P28223 whole entry): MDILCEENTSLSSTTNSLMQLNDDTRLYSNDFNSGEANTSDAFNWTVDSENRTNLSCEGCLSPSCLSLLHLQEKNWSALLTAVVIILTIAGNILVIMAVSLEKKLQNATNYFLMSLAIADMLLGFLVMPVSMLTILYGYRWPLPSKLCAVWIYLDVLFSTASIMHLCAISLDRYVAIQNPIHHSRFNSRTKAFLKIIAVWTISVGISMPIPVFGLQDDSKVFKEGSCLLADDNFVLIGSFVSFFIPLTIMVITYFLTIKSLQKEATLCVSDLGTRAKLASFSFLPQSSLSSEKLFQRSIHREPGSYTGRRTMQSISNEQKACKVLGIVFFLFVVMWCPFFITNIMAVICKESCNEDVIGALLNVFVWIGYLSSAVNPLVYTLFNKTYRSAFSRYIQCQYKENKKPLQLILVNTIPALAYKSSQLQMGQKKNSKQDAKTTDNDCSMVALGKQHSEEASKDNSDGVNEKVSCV

[29] = Cmax in rat at 2 mg/kg, po each in 0.5% Methylcellulose and 0.3% Tween-80 and 1% N-methylpyrrolidone; type: ADME, organism-based; parameters: dose 2 mg/kg, route oral; conditions: in vivo
[30] = AUC in rat at 5 mg/kg, po and 2 mg/kg, iv; type: ADME, organism-based; conditions: plasma
[31] = Permeability from apical to basolateral side of human Caco2 cells; type: ADME, cell-based; conditions: Caco-2, read-out: permeability
[32] = target: Voltage-gated inwardly rectifying potassium channel KCNH2 (Homo sapiens, UniProt Q12809); assay: Inhibition of human ERG channel
Sequence of Voltage-gated inwardly rectifying potassium channel KCNH2 (Q12809 whole entry): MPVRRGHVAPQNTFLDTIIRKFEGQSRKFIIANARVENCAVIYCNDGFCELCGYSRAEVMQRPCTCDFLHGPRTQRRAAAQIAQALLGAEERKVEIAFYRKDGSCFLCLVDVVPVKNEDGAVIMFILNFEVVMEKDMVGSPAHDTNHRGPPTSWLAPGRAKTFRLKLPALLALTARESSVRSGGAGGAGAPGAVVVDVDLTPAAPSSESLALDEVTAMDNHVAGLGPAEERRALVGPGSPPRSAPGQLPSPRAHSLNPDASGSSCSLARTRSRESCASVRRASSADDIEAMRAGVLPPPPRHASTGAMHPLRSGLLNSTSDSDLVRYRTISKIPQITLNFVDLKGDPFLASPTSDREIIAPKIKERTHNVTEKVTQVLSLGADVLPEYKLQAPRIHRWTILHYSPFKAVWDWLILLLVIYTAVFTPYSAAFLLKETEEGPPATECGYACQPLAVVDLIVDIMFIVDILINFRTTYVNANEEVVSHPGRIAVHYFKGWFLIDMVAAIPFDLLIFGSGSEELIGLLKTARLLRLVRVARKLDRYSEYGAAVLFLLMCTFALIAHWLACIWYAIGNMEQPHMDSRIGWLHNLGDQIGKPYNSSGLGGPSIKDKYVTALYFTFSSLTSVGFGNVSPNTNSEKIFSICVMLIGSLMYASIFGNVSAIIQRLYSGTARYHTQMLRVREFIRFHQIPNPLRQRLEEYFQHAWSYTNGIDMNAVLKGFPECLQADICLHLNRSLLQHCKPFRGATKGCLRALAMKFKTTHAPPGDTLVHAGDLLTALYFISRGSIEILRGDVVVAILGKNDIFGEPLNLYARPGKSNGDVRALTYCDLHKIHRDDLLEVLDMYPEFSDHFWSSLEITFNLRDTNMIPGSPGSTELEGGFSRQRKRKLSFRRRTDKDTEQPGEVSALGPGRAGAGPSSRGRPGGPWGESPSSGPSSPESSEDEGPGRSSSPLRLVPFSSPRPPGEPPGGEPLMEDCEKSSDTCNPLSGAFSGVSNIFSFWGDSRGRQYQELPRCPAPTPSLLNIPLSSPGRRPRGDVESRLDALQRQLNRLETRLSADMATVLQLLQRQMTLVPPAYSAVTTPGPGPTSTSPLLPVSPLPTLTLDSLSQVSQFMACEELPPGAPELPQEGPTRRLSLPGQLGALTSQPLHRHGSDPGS

[33] = Induction of action potential duration in guinea pig papillary muscle cells at 30 uM; type: functional, Cavia porcellus

Row | AUC [1] [µM·h] | half-life at 2 µM [2] [h] | half-life at 2 µM [3] [h] | Kp [5] | half-life at 2 µM [6] [h] | clearance [7] [mL/min/kg] | half-life at 2 µM [8] [h] | half-life [9] [h] | bioavailability [10] [%] | Cmax [11] [µM] | Vd [12] [L/kg] | logD [13] | half-life [14] [h] | pEC50 (Hepatitis C virus [15]) | clearance [16] [mL/min/kg] | Cmax [17] [µM] | AUC [18] [µM·h] | Vd [19] [L/kg] | Cmax [20] [µM] | clearance [21] [mL/min/kg] | SMILES | further results
1 | 1.2 | 0.217 | 1.5 | 13.5 | 3.13 | 4.6 | 1.3 | 2.3 | 71 | 7.2 | 0.48 | 3.5 | 2.8 | 8.30 | 13.9 | 0.44 | 21 | 1.43 | 3.6 | 13.1 | CCOc1nc(NC(=O)C(C)(C)NC(=O)c2ccc3c(C4CCCC4)c(-c4ccc(F)cn4)n(C)c3c2)ccc1/C=C/C(=O)O | logD [4]: 3.5; pIC50 (Cathepsin G): 5.22; pIC50 (D(1A) dopamine receptor): 5.22; bioavailability [22]: 12%; Vd [23]: 0.4 L/kg; pIC50 [24]: 5.89; pEC50 (Hepatitis C virus [25]): 7.64; half-life [26]: 0.7 h; bioavailability [27]: 69%; pIC50 [28]: 5.22; Cmax [29]: 3.6 µM; AUC [30]: 7.2 µM·h
2 | 14 | 0.217 | 1.72 | 4 | 2.2 | 1.9 | 0.683 | 3 | 36 | 5.9 | 0.34 | > 4.9 | 1.7 | 8.05 | 4.1 | 4.4 | 26 | 0.4 | 4.5 | 4.2 | CCOc1nc(NC(=O)C2(NC(=O)c3ccc4c(c3)c(C)c(-c3ccc(F)cn3)n4C3CCCCC3)CCC2)ccc1/C=C/C(=O)O | Papp A→B [31]: 15 ×10⁻⁶ cm/s; pIC50 [32]: 5.85; Activity [33]: 20%; bioavailability [22]: 45%; Vd [23]: 0.34 L/kg; pEC50 (Hepatitis C virus [25]): 7.66; half-life [26]: 2.4 h; bioavailability [27]: 42%; AUC [30]: 11 µM·h
